Patent US7317007B2, “Benzothiazole derivatives with activity as adenosine receptor ligands” (Hoffmann-La Roche Inc., priority 2000, dated 2008)

Columns and labels:
[1] = target: T1, human adenosine A2A receptor (Homo sapiens, UniProt P29274); test: [3H]-SCH-58261 binding assay at the human adenosine A2A receptor; conditions: read-out: pKi value (converted)
T1 construct: expressed in transfected cells; host or cells: CHO cells, Semliki Forest virus expression system; washed membrane pellet used
Description: Human Adenosine A2A Receptor
The human adenosine A2A receptor was recombinantly expressed in chinese hamster ovary (CHO) cells using the semliki forest virus expression system. Cells were harvested, washed twice by centrifugation, homogenised and again washed by centrifugation. The final washed membrane pellet was suspended in a Tris (50 mM) buffer containing 120 mM NaCl, 5 mM KCl, 2 mM CaCl2 and 10 mM MgCl2 (pH 7.4) (buffer A). The [^3H]-SCH-58261 (Dionisotti et al., 1997, Br J Pharmacol 121, 353; 1 nM) binding assay was carried out in 96-well plates in the presence of 2.5 μg of membrane protein, 0.5 mg of Ysi-poly-1-lysine SPA beads and 0.1 U adenosine deaminase in a final volume of 200 μl of buffer A. Non-specific binding was defined using xanthine amine congener (XAC; 2 μM). Compounds were tested at 10 concentrations from 10 μM-0.3 nM. All assays were conducted in duplicate and repeated at least two times. Assay plates were incubated for 1 hour at room temperature before centrifugation and then bound ligand determined using a Packard Topcount scintillation counter. IC50 values were calculated using a non-linear curve fitting program and Ki values calculated using the Cheng-Prussoff equation.

T1 sequence (P29274 whole entry): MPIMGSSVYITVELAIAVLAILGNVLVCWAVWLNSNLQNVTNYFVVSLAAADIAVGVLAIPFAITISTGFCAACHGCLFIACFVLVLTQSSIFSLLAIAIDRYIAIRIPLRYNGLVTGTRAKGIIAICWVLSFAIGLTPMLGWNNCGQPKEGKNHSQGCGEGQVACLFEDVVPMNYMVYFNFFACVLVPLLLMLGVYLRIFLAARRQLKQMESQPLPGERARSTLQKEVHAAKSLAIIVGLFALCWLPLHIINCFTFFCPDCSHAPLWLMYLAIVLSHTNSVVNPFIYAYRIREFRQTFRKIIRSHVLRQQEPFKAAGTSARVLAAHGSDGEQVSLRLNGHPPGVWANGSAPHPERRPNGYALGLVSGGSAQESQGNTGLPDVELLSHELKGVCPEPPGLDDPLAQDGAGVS

## COCCN(C)Cc1ccc(C(=O)Nc2nc3c(OC)ccc(-c4cccs4)c3s2)cc1 [Example 240, 4-{[(2-Methoxy-ethyl)-methyl-amino]-methyl}-N-(4-methoxy-7-thiophen-2-yl-benzothiazol-2-yl)-benzamide]
[1]
  Ki: 3.16 nM
other
  melting point: 58 to 78 °C
